Experimental data: patent publication US20160102052A1, “Use of Cysteamine in Treating Infections caused by Yeasts/Moulds” (priority 2014, published 2016)
Read-outs that look alike come from different tables or passages of the source.

System: Exophiala dermatitidis CA01
Assay: Broth microdilution chequerboard analysis of Lynovex (NM001) in combination with clinical antifungals
Assay type: cell-based
Conditions: for MIC: Exophiala dermatitidis, CA01, 72 h, antifungal in isolation, read-out: Antifungal MIC100; for MIC / Antifungal MIC100 in Combination: 72 h; for MIC / Antifungal MIC100 in Combination / Antifungal MIC50 in Combination: 35° C.; for FICI: antifungal with Lynovex (NM001), <0.5 Synergy, 0.5-1 Additive, >1 Indifference; for Antifungal MIC100 in Combination / Antifungal MIC50 in Combination: in combination with Lynovex (NM001)
Description: The aim of the experiment was to determine the effect of Lynovex (NM001) on the antifungal drug susceptibility of Exophiala dermatitidis CA01. Microtitre plates were prepared following CLSI recommendations for broth microdilution chequerboard method. These plates contained a serial doubling dilution of Lynovex (NM001) combined with serial doubling dilutions of antifungals drugs; Fluconazole, Itraconazole, Caspofungin and Amphotericin B. […] These were incubated at 35° C. and read at 72 h, 96 h, 120 h and 144 h on the BioTek plate reader. […] Three independent E. dermatitidis CA01 cultures were grown on PDA slope for 6 days at 35° C. • 7. Cultures were removed from incubator. 2 ml sterile 0.15M NaCl added to the overnight culture and cells harvested from the surface of the agar. Cells placed in fresh bijou tube. • 8. The cultures were allowed to rest for up to 10 minutes, allowing any hyphae to settle to the bottom. The top layer of conidia was removed into fresh bijou. Hyphae were discarded. • 9. […] This is continued to F12 where 100 μl is removed and discarded. • f. This dilution series was repeated in rows G-H for the remaining 2 cultures • g. Plate read at OD530 on BioTek • h. […] This preparation step occurs in two parts. First, Lynovex (NM001) and antifungals are serially diluted, down and across microtitre plates, respectively. Equal volumes of Lynovex and antifungal are then combined in a fresh microtitre plate, prior to inoculation. […] Stock solutions of Lynovex and antifungals were prepared at 4× desired concentrations. The plate layout at the end of this protocol is the final concentration in the plate following the combination of Lynovex and antifungals and the addition of the inocula. […] All other wells contain 150 μl sterile dH2O. • 9. Serial doubling dilutions are carried out from A to B whereby 150 μl is removed from A and placed into B and mixed well. Then take 150 μl B and place in C and mix well. This is repeated down to row G where the final 150 μl is discarded. […] The same procedure is repeated for the other 4 antifungals, carrying the dilutions across the plate i.e. […] At the final dilution in column 10, the final 150 μl is discarded. […] Inoculating Plates with E. dermatitidis CA01 • 6. Add 100 μl (total volume 200 μl) of the prepared E. dermatitidis CA01 culture to the all wells on the plate except wells H12. […] H12 will contain 100 μl water and 100 μl 2×RPMI-1640 alone, constituting an uninoculated control. • 8. The plate is read in the BioTek at OD530. • 9. Plates are then placed in a plastic box containing a Petri dish of water, sealed and incubated at 35° C. The presence of the water in the dish or on the tissue provides and environment of relatively high humidity. • 10. OD530 is then read at 72 h, 96 h, 120 h and 144 h and raw data processed using Microsoft Excel. • 11. Fractional Inhibitory Concentration (FIC) Index values are generated using MIC100 for 72 h data and MIC50 for later time points using the following formula: […]

SMILES	MIC (GEOMEAN)	MIC (MEAN)	MIC (Range)	FICI (GEOMEAN, MIC50, 96 h)	FICI (GEOMEAN, MIC50, 120 h)	FICI (GEOMEAN, MIC50, 144 h)	FICI (GEOMEAN, MIC100, 72 h)	Antifungal MIC100 in Combination (GEOMEAN)	Antifungal MIC50 in Combination (GEOMEAN, 96 h)	Antifungal MIC50 in Combination (GEOMEAN, 120 h)	Antifungal MIC50 in Combination (GEOMEAN, 144 h)	FICI (MEAN, MIC50, 96 h)	FICI (MEAN, MIC50, 120 h)	FICI (MEAN, MIC50, 144 h)	FICI (MEAN, MIC100, 72 h)	Antifungal MIC100 in Combination (MEAN)	Antifungal MIC50 in Combination (MEAN, 96 h)	Antifungal MIC50 in Combination (MEAN, 120 h)	Antifungal MIC50 in Combination (MEAN, 144 h)	Antifungal MIC100 in Combination (Range)	other results
CC[C@H](C)C[C@H](C)CCCCCCCCC(=O)N[C@H]1C[C@@H](O)[C@@H](NCCN)NC(=O)[C@@H]2[C@@H](O)CCN2C(=O)[C@H]([C@H](O)CCN)NC(=O)[C@H]([C@H](O)[C@@H](O)c2ccc(O)cc2)NC(=O)[C@@H]2C[C@@H](O)CN2C(=O)[C@H]([C@@H](C)O)NC1=O [Caspofungin]	25 µg/mL	26 µg/mL	15.6 to 31.2 µg/mL	0.48 (4)	0.24 (4)	0.41 (3)	0.25 (1)	2.0 µg/mL	11.84 µg/mL	1.95 µg/mL	3.91 µg/mL	0.58 (4)	0.27 (4)	0.52 (3)	0.25 (1)	2.0 µg/mL	14.84 µg/mL	4.20 µg/mL	6.51 µg/mL	2.0 µg/mL	Antifungal MIC50 in Combination (Range, 96 h): 3.91 to 31.25 µg/mL; Antifungal MIC50 in Combination (Range, 120 h): 0.49 to 15.625 µg/mL; Antifungal MIC50 in Combination (Range, 144 h): 0.23 µg/mL
OC(Cn1cncn1)(Cn1cncn1)c1ccc(F)cc1F [Fluconazole]	250 µg/mL	250 µg/mL	250 µg/mL	0.44 (6)	0.41 (4)	0.53 (4)	0.42 (3)	25 µg/mL	35 µg/mL	44 µg/mL	63 µg/mL	0.45 (6)	0.42 (4)	0.55 (4)	0.43 (3)	34 µg/mL	51 µg/mL	59 µg/mL	98 µg/mL	7.81 to 62.5 µg/mL	Antifungal MIC50 in Combination (Range, 96 h): 7.81 to 125 µg/mL; Antifungal MIC50 in Combination (Range, 120 h): 15.63 to 125 µg/mL; Antifungal MIC50 in Combination (Range, 144 h): 15.63 to 250 µg/mL
CCC(C)n1ncn(-c2ccc(N3CCN(c4ccc(OCC5COC(Cn6cncn6)(c6ccc(Cl)cc6Cl)O5)cc4)CC3)cc2)c1=O (stereo not drawn) [Itraconazole]	4.5 µg/mL	4.7 µg/mL	4 to 8 µg/mL	0.27 (7)	0.18 (5)	0.18 (3)	0.18 (5)	0.14 µg/mL	0.37 µg/mL	0.19 µg/mL	0.20 µg/mL	0.32 (7)	0.20 (5)	0.19 (3)	0.19 (5)	0.24 µg/mL	0.74 µg/mL	0.33 µg/mL	0.27 µg/mL	0.03 to 0.5 µg/mL	Antifungal MIC50 in Combination (Range, 96 h): 0.06 to 2 µg/mL; Antifungal MIC50 in Combination (Range, 120 h): 0.06 to 1 µg/mL; Antifungal MIC50 in Combination (Range, 144 h): 0.06 to 0.5 µg/mL
